Where two headings read alike, the source gives them in different places.
How the values were obtained:
[1] = system: Salmonella Enteritidis RKI 05/07992; assay: Luminescence of culture samples after addition of Compound Va with 15% v/v ethanol; type: cell-based; conditions: S.E., inoculation density 10^6 CFU/mL
Experimental: (§1) Escherichia coli ATCC 25922 (E.c., beta-galactosidase positive) and Salmonella Enteritidis RKI 05/07992 (S.E., beta-galactosidase negative) were cultivated in Nutrient Broth for 17 h and then serially diluted in sterile saline (0.9% NaCl). Diluted cell suspensions were inoculated 1:100 v/v in test tubes with either full-strength LB medium (10 g/L tryptone, 5 g/L yeast extract, 5 g/L NaCl) or LB medium diluted 1:20 v/v with ultrapure water (LB1:20). All media contained 1 mM IPTG for induction of beta-galactosidase. Sterile saline was added to negative control tubes. After 6 h of cultivation at 37° C. and 150 rpm, samples (0.255 mL) were withdrawn from cultures and mixed with 45 μL stock solution of compound Va in ethanol in a white microtiter plate. […] For comparison, the same E. coli strain was pre-cultured and diluted in a similar way and then inoculated in diluted Mueller-Hinton broth (MH1:20, full-strength medium diluted 1:20 v/v with 20 mM phosphate buffer pH 7.2). The medium was supplemented with 1 mM IPTG. After 6 h of cultivation at 37° C. and 150 rpm, culture samples (45 μL) were transferred to a microtiter plate and mixed with 5 μL of 10x lysis reagent which contained 2% w/v dodecyl-trimethylammonium bromide, 1 mM D-Luciferin-6-O-beta-D-galactopyranoside (commercially available, Biosynth Cat. No. L-8600) and 10 mM magnesium chloride. Lysis and reaction with D-Luciferin-6-O-beta-D-galactopyranoside was carried out for 1 h at 37° C. Then 0.2 mL of luciferase assay mix was added (5:1 v/v). The assay mix contained 62.5 mM Tris acetate (pH 7.8), 12.5 mM magnesium sulfate, 2.5 g/L bovine serum albumin, 7.5 mM D/L-cysteine, 1.25 mM ethylene diamine tetraacetate, 25 μM sodium pyrophosphate, 10 g/L cyclodextrin, 1.25 mM adenosine 5-triphosphate and 13.1 μg/mL commercially available Photinus pyralis luciferase (recombinant). Light emission was recorded with a SpectraMax M5 plate reader.

[2] = system: Escherichia coli ATCC 25922; assay: as above; type: cell-based; conditions: for Signal to noise ratio, LB1:20 (to sterile) / RLU, 6 h LB / RLU, 6 h LB1:20: E.c.; for RLU, 6 h LB / RLU, 6 h LB1:20: 20 μM, 15% v/v ethanol, 9-10 min after addition
Experimental: as §1

[3] = system: Salmonella Enteritidis RKI 05/07992; assay: Luminescence of cultures containing D-luciferin-6-O-phenyl-caprylate after mixing with luciferase assay mix; type: cell-based, Salmonella enterica ssp. enterica ser. Enteritidis; conditions: S.E.; for RLU, 6 h: 0.1 mM in Nutrient Broth, first 3 min after luciferase assay mix
Experimental: D-luciferin-6-O-phenyl-caprylate was synthesized according to procedures known to persons skilled in the art. Salmonella Enteritidis RKI 05/07992 (S.E., Salmonella enterica ssp. enterica ser. Enteritidis, C8 esterase positive) was cultivated in Nutrient Broth (5 g/L peptone, 5 g/L NaCl, 2 g/L […], 1 g/L […], pH 7.4) for 16 h and then serially diluted in sterile saline (0.9% NaCl). Diluted cell suspensions were inoculated 1:100 v/v in test tubes with Nutrient Broth containing 0.1 mM D-luciferin-6-O-phenyl-caprylate. […] Light emission was recorded with a plate reader equipped with a luminescence detection system. Mean RLU (relative light unit) values of first 3 min after addition of luciferase assay mix were compared (Table VII).

[4] = system: Escherichia coli ATCC 25922; assay: Luminescence of culture samples of carbapenem resistant and sensitive bacteria after addition of compound VIIa; type: cell-based; conditions: E.c.; for RLU max. (with 10 μM VI): 6 h culture, 30 min recording
Experimental: (§2) Carbapenem resistant bacterial strains Pseudomonas aeruginosa RKI 48/09 (IMP-2) (P.a.-Imp^R) and Klebsiella pneumoniae RKI 92/08 (KPC-2) (K.p.-Imp^R) were cultivated on trypticase soy agar supplemented with 8 mg/L and […] imipenem, respectively. Carbapenem sensitive strain Escherichia coli ATCC 25922 (E.c.) was cultivated on trypticase soy agar. Nutrient broth (for composition and pH see previous examples, 3 mL in 15 mL tubes) with and without imipenem was inoculated with imipenem resistant and sensitive bacteria from agar plates. Tube cultures were incubated for 6 h at 37° C. and 150 rpm. Culture samples (0.255 mL) were transferred to wells of a white microtiter plate and mixed with 45 μL stock solution of compound Vila in ethanol. Final concentrations of compound Vila, ethanol and dimethyl sulfoxide were 10 μM, […] and 1% v/v, respectively. Luminescence was recorded after addition of […] for 30 min with a plate reader.

[5] = system: Pseudomonas aeruginosa RKI 48/09 (IMP-2); type: cell-based; conditions: P.a.-Imp^R; for RLU max. (with 10 μM VI): 6 h culture, 30 min recording
Experimental: as §2

[6] = system: Klebsiella pneumoniae RKI 92/08 (KPC-2); type: cell-based; conditions: K.p.-Imp^R; for RLU max. (with 10 μM VI): 6 h culture, 30 min recording
Experimental: as §2

[7] = system: Escherichia coli ATCC 25922; conditions: E.c.; for Signal to noise ratio (to sterile): MH1:20; for RLU, 6 h MH1:20: first two minutes of measurement
Experimental: as §1

[8] = 20 μM, 15% v/v ethanol, 9-10 min after addition
[9] = inoculation density 10^2 CFU/mL
[10] = inoculation density 10^3 CFU/mL
[11] = inoculation density 10^4 CFU/mL
[12] = inoculation density 10^5 CFU/mL
[13] = inoculation density 10^6 CFU/mL
[14] = imipenem 4 mg/L in nutrient broth

Which “Signal to noise ratio, LB1:20 (to sterile)” value [1] does the source give for `COC(=O)/C=C/c1ccc(C2(OC)OOC23C2CC4CC(C2)CC3C4)c(Cl)c1OCc1ccc(OC2OC(CO)C(O)C(O)C2O)cc1` (centres unmarked) [Compound Va] here?
Its value is 1.

And the “RLU, 6 h LB” value [1, 8]?
The value was 66 RLU.

And the “RLU, 6 h LB1:20” value [1, 8]?
Its value is 125 RLU.

And the “Signal to noise ratio, LB1:20 (to sterile)” value [2, 9]?
Its value is 14.

And the “RLU, 6 h LB” value [2, 9]?
Its value is 551 RLU.

What about the “RLU, 6 h LB1:20” value [2, 9] of the same compound?
The value was 1369 RLU.

What about the “Signal to noise ratio, LB1:20 (to sterile)” value [2, 10] of the same compound?
The value was 79.

And the “RLU, 6 h LB” value [2, 10]?
Its value is 3317 RLU.

What about the “RLU, 6 h LB1:20” value [2, 10] of the same compound?
Its value is 7690 RLU.

What about the “Signal to noise ratio, LB1:20 (to sterile)” value [2, 11] of the same compound?
Its value is 1085.

What about the “RLU, 6 h LB” value [2, 11] of the same compound?
Its value is 49434 RLU.

What about the “RLU, 6 h LB1:20” value [2, 11] of the same compound?
The value was 105252 RLU.

And the “Signal to noise ratio, LB1:20 (to sterile)” value [2, 12]?
The value was 1698.

And the “RLU, 6 h LB” value [2, 12]?
Its value is 43412 RLU.

What about the “RLU, 6 h LB1:20” value [2, 12] of the same compound?
The value was 164721 RLU.

And the “Signal to noise ratio, LB1:20 (to sterile)” value [2, 13]?
Its value is 871.

What about the “RLU, 6 h LB” value [2, 13] of the same compound?
Its value is 18830 RLU.

And the “RLU, 6 h LB1:20” value [2, 13]?
The value was 84511 RLU.

What about the “signal to noise ratio higher than with D-Luciferin-6-O-beta-D-galactopyranoside” value ([2]; lowest tested inoculation density of E. coli, 5-fold lower working concentration) of the same compound?
Its value is 9 fold.

Which “Signal to noise ratio (to sterile)” value [3, 9] does the source give for `CCCCCCCC(=O)Oc1ccc(COc2ccc3nc(C4=N[C@@H](C(=O)O)CS4)sc3c2)cc1` [D-luciferin-6-O-phenyl-caprylate] here?
The value was 1.1.

What about the “RLU, 6 h” value [3, 9] of the same compound?
The value was 18354 RLU.

And the “Signal to noise ratio (to sterile)” value [3, 11]?
The value was 1.6.

What about the “RLU, 6 h” value [3, 11] of the same compound?
Its value is 27783 RLU.

What about the “Signal to noise ratio (to sterile)” value [3, 13] of the same compound?
Its value is 24.

And the “RLU, 6 h” value [3, 13]?
Its value is 417195 RLU.

For `C[C@@H](O)[C@H]1C(=O)N2C(C(=O)O)=C(SCCN=CN)C[C@H]12` [Imipenem, imipenem, reference compound], which “OD600 6 h” value [4, 14] is on record?
The value was 0.01.

And the “OD600 6 h” value ([5]; imipenem 8 mg/L in nutrient broth)?
Its value is 0.48.

And the “OD600 6 h” value [6, 14]?
The value was 0.50.

What does the source list for `COC(=O)/C=C/c1ccc(C2(OC)OOC23C2CC4CC(C2)CC3C4)c(Cl)c1OCc1ccc(C2=C(C(=O)O)N3C(=O)[C@H]([C@@H](C)O)[C@H]3[C@H]2C)cc1` (stereo partly drawn) [VIIa, (4S,5R,6S)-3-(4-((2-Chloro-6-((E)-3-methoxy-3-oxoprop-1-en-1-yl)-3-((1r,3r,5S,7S)-4′-methoxyspiro[adamantane-2,3′-[1,2]dioxetan]-4′-yl)phenoxy)methyl)phenyl)-6-((R)-1-hydroxyethyl)-4-methyl-7-oxo-1-azabicyclo[3.2.0]hept-2-ene-2-carboxylicacid]?
RLU max. (with 10 μM VI) ([4]; imipenem 0 mg/L): 8181 RLU; RLU max. (with 10 μM VI) ([4]; imipenem 4 mg/L): 7992 RLU; Signal to noise ratio (to E.c.) ([5]; imipenem 0 mg/L): 2.4; RLU max. (with 10 μM VI) ([5]; imipenem 0 mg/L): 19940 RLU; Signal to noise ratio (to E.c.) ([5]; imipenem 8 mg/L): 2.6; RLU max. (with 10 μM VI) ([5]; imipenem 8 mg/L): 21028 RLU; Signal to noise ratio (to E.c.) ([6]; imipenem 0 mg/L): 8.9; RLU max. (with 10 μM VI) ([6]; imipenem 0 mg/L): 72951 RLU; Signal to noise ratio (to E.c.) ([6]; imipenem 4 mg/L): 8.8; RLU max. (with 10 μM VI) ([6]; imipenem 4 mg/L): 72272 RLU

For “D-Luciferin-6-O-beta-D-galactopyranoside”, which “Signal to noise ratio (to sterile)” value [7, 9] is on record?
Its value is 1.5.

And the “RLU, 6 h MH1:20” value [7, 9]?
The value was 13367 RLU.

What about the “Signal to noise ratio (to sterile)” value [7, 11] of the same compound?
Its value is 377.

What about the “RLU, 6 h MH1:20” value [7, 11] of the same compound?
The value was 3306967 RLU.

What about the “Signal to noise ratio (to sterile)” value [7, 13] of the same compound?
Its value is 544.

What about the “RLU, 6 h MH1:20” value [7, 13] of the same compound?
Its value is 4777613 RLU.

Source: patent publication US11649475B2, “Dioxetane compounds and their use for the detection of microorganisms” (NEMIS Technologies AG, priority 2018, dated 2023)
